{"source": "patent US8685977B2", "about": "“Chemical compounds” (Pfizer Limited, priority 2010, dated 2014)"}
{"target": "T1, Nav1.7 (or SCN9A) channel (Homo sapiens, UniProt Q15858)", "T1 construct": "expressed in transfected cells", "T1 sequence (Q15858 whole entry)": "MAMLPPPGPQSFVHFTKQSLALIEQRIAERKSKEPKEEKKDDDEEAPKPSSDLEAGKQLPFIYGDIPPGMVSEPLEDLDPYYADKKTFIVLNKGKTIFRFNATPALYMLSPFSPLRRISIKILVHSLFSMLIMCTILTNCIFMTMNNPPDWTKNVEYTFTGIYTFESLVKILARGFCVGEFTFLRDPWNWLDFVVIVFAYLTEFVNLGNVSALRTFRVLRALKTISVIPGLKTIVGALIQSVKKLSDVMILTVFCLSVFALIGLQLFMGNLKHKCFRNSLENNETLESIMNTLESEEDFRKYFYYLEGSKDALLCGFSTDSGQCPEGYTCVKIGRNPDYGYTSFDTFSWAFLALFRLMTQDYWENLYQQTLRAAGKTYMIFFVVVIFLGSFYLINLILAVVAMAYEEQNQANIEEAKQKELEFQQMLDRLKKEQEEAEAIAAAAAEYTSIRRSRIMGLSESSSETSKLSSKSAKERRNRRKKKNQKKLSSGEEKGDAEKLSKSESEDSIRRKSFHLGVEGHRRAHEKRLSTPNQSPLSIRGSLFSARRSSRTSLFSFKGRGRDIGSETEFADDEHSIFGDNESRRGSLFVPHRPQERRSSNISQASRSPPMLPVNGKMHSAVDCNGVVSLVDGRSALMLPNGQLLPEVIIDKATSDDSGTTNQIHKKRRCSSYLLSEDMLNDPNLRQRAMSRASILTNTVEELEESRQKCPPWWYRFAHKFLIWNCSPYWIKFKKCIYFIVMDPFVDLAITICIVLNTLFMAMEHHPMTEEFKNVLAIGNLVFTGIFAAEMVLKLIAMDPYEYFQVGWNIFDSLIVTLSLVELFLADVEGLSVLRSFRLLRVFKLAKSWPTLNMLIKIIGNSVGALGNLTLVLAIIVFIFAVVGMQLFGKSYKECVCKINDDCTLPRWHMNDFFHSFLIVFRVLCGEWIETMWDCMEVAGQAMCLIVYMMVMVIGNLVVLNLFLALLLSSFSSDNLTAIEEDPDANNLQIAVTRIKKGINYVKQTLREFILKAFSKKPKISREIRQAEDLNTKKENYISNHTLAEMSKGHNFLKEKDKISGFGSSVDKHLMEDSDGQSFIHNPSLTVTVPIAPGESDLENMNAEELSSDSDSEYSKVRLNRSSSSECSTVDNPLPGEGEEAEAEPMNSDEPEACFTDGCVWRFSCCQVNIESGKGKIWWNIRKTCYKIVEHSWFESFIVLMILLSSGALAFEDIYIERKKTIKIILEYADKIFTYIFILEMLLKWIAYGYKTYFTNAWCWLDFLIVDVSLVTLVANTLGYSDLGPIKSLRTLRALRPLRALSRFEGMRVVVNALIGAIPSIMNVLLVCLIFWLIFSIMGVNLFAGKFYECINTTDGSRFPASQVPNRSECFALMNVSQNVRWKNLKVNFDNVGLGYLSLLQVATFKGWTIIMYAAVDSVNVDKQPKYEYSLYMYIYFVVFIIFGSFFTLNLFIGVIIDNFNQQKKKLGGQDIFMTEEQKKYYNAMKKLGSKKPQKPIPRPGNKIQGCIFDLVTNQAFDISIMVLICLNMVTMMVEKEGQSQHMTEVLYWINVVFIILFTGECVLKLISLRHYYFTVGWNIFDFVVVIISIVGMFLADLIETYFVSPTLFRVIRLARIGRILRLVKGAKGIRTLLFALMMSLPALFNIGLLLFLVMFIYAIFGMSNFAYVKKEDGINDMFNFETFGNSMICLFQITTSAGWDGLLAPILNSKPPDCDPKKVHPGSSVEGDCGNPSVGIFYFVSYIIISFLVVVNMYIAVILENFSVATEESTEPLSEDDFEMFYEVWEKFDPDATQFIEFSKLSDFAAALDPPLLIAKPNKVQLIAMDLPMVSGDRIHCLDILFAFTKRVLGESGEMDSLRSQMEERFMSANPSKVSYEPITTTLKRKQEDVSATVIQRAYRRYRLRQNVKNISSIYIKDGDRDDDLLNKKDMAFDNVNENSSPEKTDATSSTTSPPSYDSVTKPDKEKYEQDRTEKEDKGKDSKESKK", "assay": "Nav1.7 PatchXpress 7000 automated electrophysiology assay (HEK cells stably expressing hSCN9A)", "type": "cell-based", "conditions": "voltage-clamped at V1/2 of inactivation, read-out: Nav1.7 EIC50", "procedure,_shortened": "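Automated whole-cell clamp (PatchXpress) of HEK cells stably expressing hSCN9A, at 22-24 °C, in extracellular buffer at pH 7.4. Cells were held at the measured V1/2 of inactivation, then stepped to 0 mV for 20 ms. Single-concentration % inhibition gave EIC50 = concentration × (100 − %inhibition)/%inhibition, excluding <20% or >80%.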", "units": {"IC50": "µM"}}
{"smiles": "CCS(=O)(=O)NC(=O)c1ccc(Oc2cccc(F)c2)cc1", "note": "[Example 306, N-(ethylsulfonyl)-4-(3-fluorophenoxy)benzamide]", "IC50": 25}
{"smiles": "CCS(=O)(=O)NC(=O)c1ccc(Oc2ccccc2)cc1", "note": "[Example 307, N-(ethylsulfonyl)-4-phenoxybenzamide]", "IC50": 9.7}
{"smiles": "CCS(=O)(=O)NC(=O)c1ccc(Oc2ccc(C)cc2)cc1", "note": "[Example 308, N-(ethylsulfonyl)-4-(4-methylphenoxy)benzamide]", "IC50": "> 10"}
{"smiles": "CS(=O)(=O)NC(=O)c1ccc(Oc2ccc(F)cc2)cc1", "note": "[Example 309, 4-(4-fluorophenoxy)-N-(methylsulfonyl)benzamide]", "IC50": 18}
{"smiles": "CS(=O)(=O)NC(=O)c1ccc(Oc2ccc(C#N)c(C(F)(F)F)c2)cc1", "note": "[Example 310, 4-[4-cyano-3-(trifluoromethyl)phenoxy]-N-(methylsulfonyl)benzamide]", "IC50": 3.3}
{"smiles": "CS(=O)(=O)NC(=O)c1ccc(Oc2ccc(-n3ccnc3)cc2)cc1", "note": "[Example 311, 4-[4-(1H-imidazol-1-yl)phenoxy]-N-(methylsulfonyl)benzamide]", "IC50": "> 3"}
{"smiles": "Cn1nc(C(F)(F)F)cc1-c1ccc(Oc2ccc(C(=O)NS(C)(=O)=O)cc2)cc1", "note": "[Example 312, N-(methylsulfonyl)-4-{4-[1-methyl-3-(trifluoromethyl)-1H-pyrazol-5-yl]phenoxy}benzamide]", "IC50": 3.3}
{"smiles": "CS(=O)(=O)NC(=O)c1cc(Cl)c(Oc2ccc(C(F)(F)F)cc2-c2ccnnc2)cc1F", "note": "[Example 313, 5-chloro-2-fluoro-N-(methylsulfonyl)-4-[2-pyridazin-4-yl-4-(trifluoromethyl)phenoxy]benzamide]", "IC50": 9.9}
{"smiles": "COc1ccc(OC(F)(F)F)cc1Oc1cc(F)c(C(=O)NS(C)(=O)=O)cc1F", "note": "[Example 314, 2,5-difluoro-4-[2-methoxy-5-(trifluoromethoxy)phenoxy]-N-(methylsulfonyl)benzamide]", "IC50": 1.1}
{"smiles": "CS(=O)(=O)NC(=O)c1ccc(Cc2ccc(Cl)c(Cl)c2)cc1", "note": "[Example 315, 4-(3,4-Dichlorobenzyl)-N-(methylsulfonyl)benzamide]", "IC50": 1.5}
{"smiles": "CS(=O)(=O)NC(=O)c1ccc(Cc2cccc(OC(F)(F)F)c2)cc1", "note": "[Example 316, N-(Methylsulfonyl-1)-4-[3-(trifluoromethoxy)benzyl]benzamide]", "IC50": 1.6}
{"smiles": "CS(=O)(=O)NC(=O)c1ccc(Sc2ccc(Cl)c(Cl)c2)cc1", "note": "[Example 317, 4-[(3,4-Dichlorophenyl)sulfanyl]-N-(methylsulfonyl)benzamide]", "IC50": 3.5}
{"smiles": "CS(=O)(=O)NC(=O)c1ccc(Sc2cccc(OC(F)(F)F)c2)cc1", "note": "[Example 318, N-(Methylsulfonyl)-4-{[3-(trifluoromethoxy)phenyl]sulfanyl}benzamide]", "IC50": 5.6}
{"smiles": "COc1cc(Cl)ccc1Cc1cc(F)c(C(=O)NS(C)(=O)=O)cc1F", "note": "[Example 319, 4-(4-Chloro-2-methoxybenzyl)-2,5-difluoro-N-(methylsulfonyl)benzamide]", "IC50": 2.5}
{"smiles": "CS(=O)(=O)NC(=O)c1ccc(Oc2ccc(Cl)c(C(F)(F)F)c2)c(Cl)c1F", "note": "[Example 320, 3-chloro-4-(4-chloro-3-(trifluoromethyl)phenoxy)-2-fluoro-N-(methylsulfonyl)benzamide]", "IC50": 1.8}
{"smiles": "CS(=O)(=O)NC(=O)c1ccc(Nc2cccc(C(F)(F)F)c2)cc1", "note": "[Example 321, N-(methylsulfonyl)-4-(3-(trifluoromethyl)phenylamino)benzamide]", "IC50": 0.32}
{"smiles": "COc1cc(C(=O)NS(C)(=O)=O)ccc1Cc1ccc(Cl)c(Cl)c1", "note": "[Example 322, 4-(3,4-dichlorobenzyl)-3-methoxy-N-(methylsulfonyl)benzamide]", "IC50": "> 3"}
{"smiles": "CS(=O)(=O)NC(=O)c1ccc(Sc2ccccc2Cl)cc1", "note": "[Example 323, 4-(2-chlorophenylthio)-N-(methylsulfonyl)benzamide]", "IC50": 36}
{"smiles": "COc1ccccc1Sc1ccc(C(=O)NS(C)(=O)=O)cc1", "note": "[Example 324, 4-(2-methoxyphenylthio)-N-(methylsulfonyl)benzamide]", "IC50": "> 3"}
{"smiles": "COc1cc(Oc2ccc(Cl)c(C(F)(F)F)c2)ccc1C(=O)NS(C)(=O)=O", "note": "[Example 326, 4-(4-chloro-3-(trifluoromethyl)phenoxy)-2-methoxy-N-(methylsulfonyl)benzamide]", "IC50": 4.1}
{"target": "T1, Nav1.7 (or SCN9A) channel", "assay": "Nav1.7 Ionworks Quattro automated electrophysiology assay (HEK cells expressing hSCN9A)", "type": "cell-based", "conditions": "Ionworks assay (IW), read-out: Nav1.7 EIC50 (IW)", "experimental": "The ability of the compounds of formula (I) to block the Nav1.7 (or SCN9A) channel was measured using the assays described below. Human Embryonic Kidney (HEK) cells were transfected with an hSCN9A construct using lipofectamine reagent (Invitrogen), using standard techniques. Cells stably expressing the hSCN9A constructs were identified by their resistance to G-418 (400 μg/ml). Clones were screened for expression using the whole-cell voltage-clamp technique. HEK cells stably transfected with hSCN9A were maintained in DMEM medium supplemented with 10% heat-inactivated fetal bovine serum and 400 μg/ml G-418 in an incubator at 37° C. with a humidified atmosphere of 10% CO2. For HTS, cells were harvested from flasks by trypsinization and replated in an appropriate multi-well plate (typically 96 or 384 wells/plate) such that confluence would be achieved within 24 hours of plating. For electrophysiological studies, cells were removed from the culture flask by brief trypsinization and re-plated at low density onto glass cover slips. Cells were typically used for electrophysiological experiments within 24 to 72 hours after plating. Electrophysiological assays were also conducted using the lonworks Quattro automated electrophysiological platform (Molecular Devices Corp). Intracellular and extracellular solutions were as described above with the following changes, 100 μg/ml amphotericin was added to the intracellular solution to perforate the membrane and allow electrical access to the cells. hSCN9A cells were grown and harvested as for PatchXpress and cells were resuspended in extracellular solution at a concentration of 3−4×10^6 cells/ml. The onboard liquid handling facility of the lonworks Quattro was used for dispensing cells and application of test compounds. A voltage protocol was then applied that comprised of a voltage step to fully inactivate the sodium channels, followed by a brief hyperpolarized recovery period to allow partial recovery from inactivation for unblocked sodium channels, followed by a test depolarized voltage step to assess magnitude of inhibition by test compound. Compound effect was determined based on current amplitude difference between the pre-compound addition and post-compound addition scans. Compounds of the Examples were tested in the assays described above and found to have the Nav1.7 EIC50 (μM) values specified in the table below. All data are derived from the PatchXpress assay unless explicitly stated otherwise.", "units": {"IC50": "µM"}}
{"smiles": "CS(=O)(=O)NC(=O)c1ccc(Oc2cc(C(F)(F)F)ccc2Cl)cc1", "note": "[Example 207, 4-[2-chloro-5-(trifluoromethyl)phenoxy]-N-(methylsulfonyl)benzamide]", "IC50": 13.7}
{"smiles": "CS(=O)(=O)NC(=O)c1ccc(Oc2ccc(F)c(C(F)(F)F)c2)cc1", "note": "[Example 208, 4-[4-fluoro-3-(trifluoromethyl)phenoxy]-N-(methylsulfonyl)benzamide]", "IC50": 18.7}
{"smiles": "CS(=O)(=O)NC(=O)c1ccc(Oc2ccccc2OC(F)(F)F)cc1", "note": "[Example 209, N-(methylsulfonyl)-4-[2-(trifluoromethoxy)phenoxy]benzamide]", "IC50": 28.2}
{"smiles": "CS(=O)(=O)NC(=O)c1ccc(Oc2cccc(C(F)(F)F)c2Cl)cc1", "note": "[Example 210, 4-[2-chloro-3-(trifluoromethyl)phenoxy]-N-(methylsulfonyl)benzamide]", "IC50": 288}
{"smiles": "CS(=O)(=O)NC(=O)c1ccc(Oc2ccccc2C#N)cc1", "note": "[Example 211, 4-(2-cyanophenoxy)-N-(methylsulfonyl)benzamide]", "IC50": 67}
{"smiles": "COc1c(C(=O)NS(C)(=O)=O)ccc(Oc2ccc(Cl)c(F)c2)c1F", "note": "[Example 221, 4-(4-chloro-3-fluorophenoxy)-3-fluoro-2-methoxy-N-(methylsulfonyl)benzamide]", "IC50": 300}
{"smiles": "COc1c(C(=O)NS(C)(=O)=O)ccc(Oc2ccc(C)cc2)c1F", "note": "[Example 226, 3-fluoro-2-methoxy-4-(4-methylphenoxy)-N-(methylsulfonyl)benzamide]", "IC50": 300}
{"smiles": "COc1cc(Oc2ccc(Cl)cc2)ccc1C(=O)NS(C)(=O)=O", "note": "[Example 235, 4-(4-chlorophenoxy)-2-methoxy-N-(methylsulfonyl)benzamide]", "IC50": 36.6}
{"smiles": "COc1cc(C(=O)NS(C)(=O)=O)ccc1Oc1ccc(F)c(C(F)(F)F)c1", "note": "[Example 241, 4-[4-fluoro-3-(trifluoromethyl)phenoxy]-3-methoxy-N-(methylsulfonyl)benzamide]", "IC50": 144}
{"smiles": "CS(=O)(=O)NC(=O)c1ccc(Oc2ccc(C(F)(F)F)cc2)cc1C#N", "note": "[Example 243, 2-cyano-N-(methylsulfonyl)-4-[4-(trifluoromethyl)phenoxy]benzamide]", "IC50": 11.9}
{"smiles": "CCOc1cccc(Oc2ccc(C(=O)NS(C)(=O)=O)cc2)c1", "note": "[Example 259, 4-(3-ethoxyphenoxy)-N-(methylsulfonyl)benzamide]", "IC50": "> 323"}
{"smiles": "CS(=O)(=O)NC(=O)c1ccc(Oc2ccccc2C(F)(F)F)c(C#N)c1", "note": "[Example 271, 3-cyano-N-(methylsulfonyl)-4-[2-(trifluoromethyl)phenoxy]benzamide]", "IC50": "> 323"}
{"smiles": "CCOc1ccccc1Oc1ccc(C(=O)NS(C)(=O)=O)cc1C#N", "note": "[Example 273, 3-cyano-4-(2-ethoxyphenoxy)-N-(methylsulfonyl)benzamide]", "IC50": 44.8}
{"smiles": "COc1ccc(Oc2ccc(C(=O)NS(C)(=O)=O)cc2C#N)cc1", "note": "[Example 274, 3-cyano-4-(4-methoxyphenoxy)-N-(methylsulfonyl)benzamide]", "IC50": 277}
{"smiles": "Cc1ccccc1Oc1ccc(C(=O)NS(C)(=O)=O)cc1C#N", "note": "[Example 275, 3-cyano-4-(2-methylphenoxy)-N-(methylsulfonyl)benzamide]", "IC50": 116}
{"smiles": "CS(=O)(=O)NC(=O)c1cc(Cl)c(Oc2ccccc2Cl)cc1F", "note": "[Example 300, 5-chloro-4-(2-chlorophenoxy)-2-fluoro-N-(methylsulfonyl)benzamide]", "IC50": 3.91}
{"smiles": "COc1ccc(Oc2cc(F)c(C(=O)NS(C)(=O)=O)cc2Cl)cc1", "note": "[Example 301, 5-chloro-2-fluoro-4-(4-methoxyphenoxy)-N-(methylsulfonyl)benzamide]", "IC50": 61.7}
{"smiles": "CS(=O)(=O)NC(=O)c1cc(F)c(Oc2ccccc2C#N)cc1F", "note": "[Example 327, 4-(2-cyanophenoxy)-2,5-difluoro-N-(methylsulfonyl)benzamide]", "IC50": "> 323"}
